The source of these data is PMC5544254 (Molecular bioSystems, 2017).

In this assay the test system is SMNDC1_12PC RNA (5′-UTR SMNDC1 mRNA G quadruplex). Nature of the assay: Steady-state fluorescence spectroscopy titration, PC reporter quenching. Particulars: BSA titrated into SMNDC1_12PC RNA, control experiment, Supplemental Figure 1D. Type of assay: binding.

Take bovine serum albumin [BSA]: the “change of steady state fluorescence of PC reporter (non-specific control)” value is given as “did not change”.
